The values below come from ChEMBL document CHEMBL1909046, “DrugMatrix in vitro pharmacology data”.

Molecules are shown by their SMILES.

The IC50 is the midpoint of a concentration-inhibition curve.

Assay [1] deals with T1, Alpha-1B adrenergic receptor (Rattus norvegicus, UniProt P15823).
T1 sequence (P15823 whole entry): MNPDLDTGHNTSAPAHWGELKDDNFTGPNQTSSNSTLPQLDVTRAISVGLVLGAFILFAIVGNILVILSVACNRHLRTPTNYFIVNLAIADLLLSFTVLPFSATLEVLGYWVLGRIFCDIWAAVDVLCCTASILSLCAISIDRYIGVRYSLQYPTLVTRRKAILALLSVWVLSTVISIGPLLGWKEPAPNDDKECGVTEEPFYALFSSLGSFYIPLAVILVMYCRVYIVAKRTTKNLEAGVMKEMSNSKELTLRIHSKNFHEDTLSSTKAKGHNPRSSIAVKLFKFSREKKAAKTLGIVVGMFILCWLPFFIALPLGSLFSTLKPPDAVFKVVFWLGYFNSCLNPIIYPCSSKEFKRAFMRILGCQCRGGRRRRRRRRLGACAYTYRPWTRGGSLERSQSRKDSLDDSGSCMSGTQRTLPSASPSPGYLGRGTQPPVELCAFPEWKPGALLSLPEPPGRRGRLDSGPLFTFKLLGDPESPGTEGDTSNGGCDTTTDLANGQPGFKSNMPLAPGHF
The assay can be described thus: DRUGMATRIX: Alpha-1B adrenergic receptor radioligand binding (ligand: prazosin). It is filed as cell membranes, Wistar, Liver, Membrane. As to conditions: Not Active = under 50% inhibition at 10 µM.

Assay [2] deals with Beta-2 adrenergic receptor (Homo sapiens, UniProt P07550). The assay can be described thus: DRUGMATRIX: Adrenergic beta2 radioligand binding (ligand: [3H] CGP-12177). In kind it is cell membranes, CHO, Membrane. As to conditions: cho; Not Active = under 50% inhibition at 10 µM.
The target of another assay is T2, Thromboxane-A synthase (Homo sapiens, UniProt P24557).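 Further: enzyme inhibition assay with PGH2 supplied as substrate; in other assays of this panel Not Active means under 50% inhibition at 10 µM.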
T2 sequence (P24557 whole entry): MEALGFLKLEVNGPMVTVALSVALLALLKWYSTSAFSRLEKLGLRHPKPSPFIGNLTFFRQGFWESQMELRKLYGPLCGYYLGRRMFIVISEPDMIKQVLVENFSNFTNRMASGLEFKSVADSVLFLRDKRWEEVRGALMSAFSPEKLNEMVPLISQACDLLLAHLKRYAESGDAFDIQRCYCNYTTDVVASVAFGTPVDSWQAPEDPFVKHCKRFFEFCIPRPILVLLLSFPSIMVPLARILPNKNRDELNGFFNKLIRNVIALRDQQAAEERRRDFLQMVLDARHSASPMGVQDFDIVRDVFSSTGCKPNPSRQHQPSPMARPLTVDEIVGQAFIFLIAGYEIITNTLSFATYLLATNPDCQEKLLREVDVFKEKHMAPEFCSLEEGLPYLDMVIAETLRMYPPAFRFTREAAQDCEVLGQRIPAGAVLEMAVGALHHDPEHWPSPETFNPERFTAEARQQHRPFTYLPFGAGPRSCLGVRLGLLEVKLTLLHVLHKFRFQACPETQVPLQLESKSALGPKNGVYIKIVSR
Kind of assay: biochemical. In kind it is tissue-based, Platelet.

The target of a further assay is Cannabinoid receptor 1 (Homo sapiens, UniProt P21554). It is filed as cell membranes, Chem-1, Membrane. The conditions noted are these: chem-1. Further: in other assays of this panel Not Active means under 50% inhibition at 10 µM.
Assay [3] can be described thus: DRUGMATRIX: Glutamate, NMDA, Agonism radioligand binding (ligand: [3H] CGP-39653). In kind it is cell membranes, Rattus norvegicus, Wistar, Cerebral cortex, Membrane. As to conditions: Not Active = under 50% inhibition at 10 µM.
Assay [4] is described as follows: DRUGMATRIX: Platelet-Derived Growth Factor (PDGF) radioligand binding (ligand: [125I] PDGF). In kind it is cell-based. The conditions noted are these: nih3t3; Not Active = under 50% inhibition at 10 µM.

Beta-2 adrenergic receptor, sequence (P07550 whole entry): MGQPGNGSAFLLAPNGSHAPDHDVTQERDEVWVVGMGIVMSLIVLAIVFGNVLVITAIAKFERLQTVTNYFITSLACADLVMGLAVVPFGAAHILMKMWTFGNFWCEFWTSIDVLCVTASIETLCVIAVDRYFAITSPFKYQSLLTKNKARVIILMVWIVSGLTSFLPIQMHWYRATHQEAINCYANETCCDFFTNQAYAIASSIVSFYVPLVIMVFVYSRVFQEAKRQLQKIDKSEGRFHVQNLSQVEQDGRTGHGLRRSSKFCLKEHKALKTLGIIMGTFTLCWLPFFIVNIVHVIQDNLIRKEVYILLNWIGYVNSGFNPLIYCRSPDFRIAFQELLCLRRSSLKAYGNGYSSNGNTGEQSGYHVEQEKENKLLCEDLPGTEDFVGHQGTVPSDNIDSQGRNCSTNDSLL
Cannabinoid receptor 1, sequence (P21554 whole entry): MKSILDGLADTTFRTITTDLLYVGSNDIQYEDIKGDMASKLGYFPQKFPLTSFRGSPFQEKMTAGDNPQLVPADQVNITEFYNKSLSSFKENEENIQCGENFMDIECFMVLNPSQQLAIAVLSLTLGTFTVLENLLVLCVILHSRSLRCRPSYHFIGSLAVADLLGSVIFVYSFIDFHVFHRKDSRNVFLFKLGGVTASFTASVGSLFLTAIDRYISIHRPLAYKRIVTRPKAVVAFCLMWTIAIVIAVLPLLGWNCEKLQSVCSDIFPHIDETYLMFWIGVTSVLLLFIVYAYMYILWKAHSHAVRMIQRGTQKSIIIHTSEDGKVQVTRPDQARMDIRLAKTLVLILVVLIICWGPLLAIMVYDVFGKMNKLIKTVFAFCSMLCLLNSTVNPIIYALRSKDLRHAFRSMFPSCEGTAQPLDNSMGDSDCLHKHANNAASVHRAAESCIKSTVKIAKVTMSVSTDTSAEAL

For `COc1ccc2c3c1O[C@H]1C[C@@H](O)C=C[C@@]31CCN(C)C2` [GALANTAMINE], the IC50 result (in assay [1]; in assay [2]; at Thromboxane-A synthase (platelet); on Cannabinoid receptor 1; in assay [3]; in assay [4]) was “Not Active” throughout. In addition, the Ki result in assay [3] and in assay [4] was “Not Active” in each case.

Consider `Nc1ccn([C@@H]2O[C@H](CO)[C@@H](O)C2(F)F)c(=O)n1` [GEMCITABINE], for which the IC50 result (in assay [1]; in assay [2]; against Thromboxane-A synthase (platelet); against Cannabinoid receptor 1; in assay [3]; in assay [4]) was “Not Active” throughout. For the same molecule, the Ki result in assay [3] and in assay [4] was “Not Active” in each case.

With `CC(C)=CCC/C(C)=C/CO` [GERANIOL], the IC50 result (in assay [1]; in assay [2]; at Thromboxane-A synthase (platelet); against Cannabinoid receptor 1; in assay [3]; in assay [4]) was “Not Active” each time. The Ki result in assay [3] and in assay [4] was “Not Active” each time.

For `N=C(N)NC(=O)Cc1c(Cl)cccc1Cl` [GUANFACINE], the concentration for half-maximal inhibition (IC50) entry (in assay [1]; in assay [2]; against Thromboxane-A synthase (platelet); against Cannabinoid receptor 1; in assay [3]; in assay [4]) was “Not Active” throughout. The Ki result in assay [3] and in assay [4] was “Not Active” throughout.

For the molecule `Oc1c(Cl)cc(Cl)c(Cl)c1Cc1c(O)c(Cl)cc(Cl)c1Cl` [HEXACHLOROPHENE], the IC50 entry in assay [1] was “Not Active”; in assay [2] it was “Not Active”; on Thromboxane-A synthase (read-out: IC50), 3.09 µM; at Cannabinoid receptor 1 it was “Not Active”; in assay [3], “Not Active”; in assay [4], “Not Active”. For the same molecule, the Ki result in assay [3] and in assay [4] was “Not Active” in each case.

Regarding `NNc1nncc2ccccc12` [HYDRALAZINE], the IC50 result (in assay [1]; in assay [2]; against Thromboxane-A synthase (platelet); against Cannabinoid receptor 1; in assay [3]; in assay [4]) was “Not Active” throughout. In addition, the Ki entry in assay [3] and in assay [4] was “Not Active” throughout.

Turning to `CC(=O)[C@@]1(O)CC[C@H]2[C@@H]3CCC4=CC(=O)CC[C@]4(C)[C@H]3CC[C@@]21C` [HYDROXYPROGESTERONE], the IC50 entry (in assay [1]; in assay [2]; against Thromboxane-A synthase (platelet); at Cannabinoid receptor 1; in assay [3]; in assay [4]) was “Not Active” each time. The Ki result in assay [3] and in assay [4] was “Not Active” in each case.

For `COC1=C(OC)C(=O)C(CCCCCCCCCCO)=C(C)C1=O` [IDEBENONE], the IC50 entry (in assay [1]; in assay [2]; at Thromboxane-A synthase (platelet); at Cannabinoid receptor 1; in assay [3]; in assay [4]) was “Not Active” throughout. Moreover, the Ki result in assay [3] and in assay [4] was “Not Active” in each case.

For the molecule `CC(C)NNC(=O)c1ccncc1` [IPRONIAZID], the IC50 result (in assay [1]; in assay [2]; against Thromboxane-A synthase (platelet); on Cannabinoid receptor 1; in assay [3]; in assay [4]) was “Not Active” each time. The Ki result in assay [3] and in assay [4] was “Not Active” in each case.

For `Cc1c(OCC(F)(F)F)ccnc1C[S+]([O-])c1nc2ccccc2[nH]1` (stereo not given) [LANSOPRAZOLE], the IC50 result (in assay [1]; in assay [2]; at Thromboxane-A synthase (platelet); at Cannabinoid receptor 1; in assay [3]; in assay [4]) was “Not Active” each time. The Ki entry in assay [3] and in assay [4] was “Not Active” in each case.

On to `O=c1cc(N2CCOCC2)oc2c(-c3ccccc3)cccc12` [LY-294002], for which the half-inhibitory concentration (IC50) result (in assay [1]; in assay [2]; at Thromboxane-A synthase (platelet); at Cannabinoid receptor 1; in assay [3]; in assay [4]) was “Not Active” in each case. For the same molecule, the Ki result in assay [3] and in assay [4] was “Not Active” each time.

With `COc1ccc2[nH]cc(CCNC(C)=O)c2c1` [MELATONIN], the half-inhibitory concentration (IC50) result (in assay [1]; in assay [2]; at Thromboxane-A synthase (platelet); on Cannabinoid receptor 1; in assay [3]; in assay [4]) was “Not Active” each time. For the same molecule, the Ki result in assay [3] and in assay [4] was “Not Active” each time.

Take `NC(=O)C[S+]([O-])C(c1ccccc1)c1ccccc1` (stereo not given) [MODAFINIL]: the IC50 entry (in assay [1]; in assay [2]; at Thromboxane-A synthase (platelet); on Cannabinoid receptor 1; in assay [3]; in assay [4]) was “Not Active” in each case. Besides, the Ki entry in assay [3] and in assay [4] was “Not Active” throughout.

Take `CCN(CC)CCOCCC1=CCC2CC1C2(C)C` (stereo not given) [MYRTECAINE]: the IC50 result (in assay [1]; in assay [2]; against Thromboxane-A synthase (platelet); on Cannabinoid receptor 1; in assay [3]; in assay [4]) was “Not Active” in each case. The Ki result in assay [3] and in assay [4] was “Not Active” each time.

As for `O=C(O)c1cccnc1Nc1cccc(C(F)(F)F)c1` [NIFLUMIC ACID], the IC50 entry (in assay [1]; in assay [2]; at Thromboxane-A synthase (platelet); at Cannabinoid receptor 1; in assay [3]; in assay [4]) was “Not Active” throughout. The Ki result in assay [3] and in assay [4] was “Not Active” each time.

For the molecule `O=C(N/N=C/c1ccc([N+](=O)[O-])o1)c1cc([N+](=O)[O-])cc([N+](=O)[O-])c1O` [NIFURSOL], the IC50 result (in assay [1]; in assay [2]; against Thromboxane-A synthase (platelet); against Cannabinoid receptor 1; in assay [3]; in assay [4]) was “Not Active” throughout. The Ki result in assay [3] and in assay [4] was “Not Active” each time.

For `COC(=O)Nc1nc2ccc(C(=O)c3cccs3)cc2[nH]1` [NOCODAZOLE], the IC50 entry (in assay [1]; in assay [2]; at Thromboxane-A synthase (platelet); against Cannabinoid receptor 1; in assay [3]; in assay [4]) was “Not Active” throughout. Moreover, the Ki entry in assay [3] and in assay [4] was “Not Active” in each case.

Consider `C#CC1(O)CC[C@H]2[C@@H]3CCC4=CC(=O)CC[C@@H]4[C@H]3CC[C@@]21CC` (stereo not given in full) [NORGESTREL], for which the IC50 result (in assay [1]; in assay [2]; at Thromboxane-A synthase (platelet); on Cannabinoid receptor 1; in assay [3]; in assay [4]) was “Not Active” each time. For the same molecule, the Ki result in assay [3] and in assay [4] was “Not Active” throughout.

For the molecule `COC(=O)Nc1nc2ccc([S+]([O-])c3ccccc3)cc2[nH]1` (stereo not given) [OXFENDAZOLE], the half-maximal inhibitory concentration (IC50) entry (in assay [1]; in assay [2]; against Thromboxane-A synthase (platelet); on Cannabinoid receptor 1; in assay [3]; in assay [4]) was “Not Active” in each case. Also, the Ki result in assay [3] and in assay [4] was “Not Active” each time.

Take `CC(=O)O[C@H]1C(=O)[C@@]2(C)[C@H]([C@H](OC(=O)c3ccccc3)[C@]3(O)C[C@H](OC(=O)[C@H](O)[C@@H](NC(=O)c4ccccc4)c4ccccc4)C(C)=C1C3(C)C)[C@]1(OC(C)=O)CO[C@@H]1C[C@@H]2O` [PACLITAXEL]: the concentration for half-maximal inhibition (IC50) result (in assay [1]; in assay [2]; at Thromboxane-A synthase (platelet); against Cannabinoid receptor 1; in assay [3]; in assay [4]) was “Not Active” throughout. Also, the Ki entry in assay [3] and in assay [4] was “Not Active” throughout.
